Values after ≈ are worked out from the molar mass of the structure shown. Where a name gives a salt, the structure may show the parent alone. Read-outs that look alike come from different tables or passages of the source.
Assays:
[1] = target: T1, hURAT1 (Homo sapiens, UniProt Q96S37); test: Test for inhibiting urate reuptake activity via hURAT1 (uric acid transport assay in hURAT1-overexpressed HEK293 cell line); type: cell-based; conditions: hURAT1-overexpressed HEK293 cells, [14C]-uric acid uptake, 100 μM uric acid; read-out: IC50 (μM) hURAT, level of uric acid reuptake inhibition
T1 construct: expressed in transfected cells; host or cells: HEK293 (human kidney cell line), transient transfection with Fugene6
T1 sequence (Q96S37 1-553): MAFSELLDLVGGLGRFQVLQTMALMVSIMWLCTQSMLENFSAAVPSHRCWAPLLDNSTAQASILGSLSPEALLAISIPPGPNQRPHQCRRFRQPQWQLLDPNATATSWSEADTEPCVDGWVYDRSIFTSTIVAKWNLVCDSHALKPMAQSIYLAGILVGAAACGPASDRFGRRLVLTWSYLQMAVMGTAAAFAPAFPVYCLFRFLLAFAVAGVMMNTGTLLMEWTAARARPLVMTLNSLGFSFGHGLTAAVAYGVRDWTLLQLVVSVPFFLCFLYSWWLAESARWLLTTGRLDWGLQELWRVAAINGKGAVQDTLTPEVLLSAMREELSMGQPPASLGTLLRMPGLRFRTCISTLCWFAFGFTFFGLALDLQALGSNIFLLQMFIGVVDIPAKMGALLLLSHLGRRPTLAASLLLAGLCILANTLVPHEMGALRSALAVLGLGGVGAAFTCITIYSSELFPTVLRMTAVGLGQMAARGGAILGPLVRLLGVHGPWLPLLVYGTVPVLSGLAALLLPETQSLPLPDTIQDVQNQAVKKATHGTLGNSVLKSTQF
Description: Test for Inhibiting Urate Reuptake Activity Via hURAT1
[hURAT1 Overexpression by Transient Transfection in Human Kidney Cell Line]
A human kidney cell line, HEK293 was incubated by using OptiMEM medium in 100 mm dish at (3*10^6 cells) for 24 hours. In order for the expression of hURAT1, a transfection mixture solution (Fugene6 18 μl:hURAT1 DNA 6 μg=3:1, in 600 μl OptiMEM medium/dish) was prepared and kept for 15 minutes at room temperature. To each dish, 600 μl of the mixture solution was injected and then incubated in 37[…] cell incubator for 24 hours. The hURAT1-overexpressed HEK293 cell line was trypsinized and cells were harvested. Cells were resuspended in medium and seeded at 6*10^5 cells/well and incubated for 24 hours in 24-well plate which was surface-coated with Poly-D-Lysine.
[Uric Acid Transport Assay in hURAT1-Overexpressed HEK293 Cell Line]
For each concentration, the stock sample solution was diluted in PBS (1 μl in 800 μl of PBS) as 1.25 fold concentrated working sample solution to obtain final concentrations of 0.01, 0.1, 1 and 10 μM. The hURAT1-overexpressed cell line was washed with 1 ml of PBS. After washing, PBS was discarded and the sample solution was diluted by 1.25 fold with PBS. Preincubation of cells with 200 μl/well of sample solution made above was conducted for 30 minutes in 37[…] cell incubator. After the incubation, each well was treated with 50 μl of PBS containing 500 μM [^14C]-uric acid (final 100 μM of uric acid/well). Cells were incubated for 2 minutes. The cells were washed twice with 1 ml of PBS.
To measure the uric acid uptake, each well was treated with 150 μl of M-per buffer (PIERCE) and kept in 37° C. cell incubator for 30 minutes to make cell lysates. 150 μl of cell lysates was transferred into test tube and 4 ml of scintillation cocktail was added. CPM value of [^14C]-uric acid absorbed into cells was detected using liquid scintillation counter. IC50 for the inhibition of uric acid uptake by each test sample was analyzed by computational numerical processing.

[2] = Test for solubility according to pH; type: physicochemical; conditions: 37 °C, thermodynamic from solid, 37° C. 2 hours
[3] = target: CYP2C9 (Homo sapiens, UniProt P11712); test: biochemical
Chain of CYP2C9 (P11712 whole entry): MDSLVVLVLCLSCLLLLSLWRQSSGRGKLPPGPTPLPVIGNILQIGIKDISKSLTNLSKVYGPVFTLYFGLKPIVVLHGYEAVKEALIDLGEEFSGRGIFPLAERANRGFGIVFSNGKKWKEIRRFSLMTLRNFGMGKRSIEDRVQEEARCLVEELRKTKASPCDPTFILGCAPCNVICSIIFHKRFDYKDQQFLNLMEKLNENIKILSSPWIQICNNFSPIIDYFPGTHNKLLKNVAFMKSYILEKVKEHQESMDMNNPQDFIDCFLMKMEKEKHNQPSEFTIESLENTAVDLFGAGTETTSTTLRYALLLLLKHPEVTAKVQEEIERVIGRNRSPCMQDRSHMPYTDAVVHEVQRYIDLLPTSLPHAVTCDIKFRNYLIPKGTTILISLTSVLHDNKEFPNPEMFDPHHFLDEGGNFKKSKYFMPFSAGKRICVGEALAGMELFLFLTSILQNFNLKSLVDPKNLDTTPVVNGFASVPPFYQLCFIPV

[4] = pH 1.2, simulated gastric fluid, first solution pH about 1.2, 2 mg/mL, read-out: Solubility (μg/mL) pH 1.2
[5] = pH 6.8, aqueous buffer, second solution pH about 6.8, 2 mg/mL, read-out: Solubility (μg/mL) pH 6.8

| IC50 [1] | solubility at 2 h [2, 4] | solubility at 2 h [2, 5] | IC50 [3] | SMILES |
| --- | --- | --- | --- | --- |
| 0.128 µM | 34.8 µg/mL (≈ 83.8 µM) | 624 µg/mL (≈ 1500 µM) | > 20000 nM | O=C(c1cc(Br)c(O)c(Br)c1)N1CCOc2ncncc21 [Compound 62, (3,5-dibromo-4-hydroxy-phenyl)-(6,7-dihydro-pyrimido[4,5-b][1,4]oxazin-5-yl)-methanone] |
| 0.0562 µM | – | – | 10300 nM | O=C(c1cc(Br)c(O)c(Br)c1)N1CCOc2ncc(-c3ccoc3)cc21 [Compound 53, (3,5-dibromo-4-hydroxy-phenyl)-(7-furan-3-yl-2,3-dihydro-pyrido[2,3-b][1,4]oxazin-1-yl]-methanone] |
| 0.0073 µM | – | – | > 20000 nM | O=C(c1cc(Br)c(O)c(Br)c1)N1CCOc2ncc(Br)cc21 [Compound 25, (7-bromo-2,3-dihydro-pyrido[2,3-b][1,4]oxazin-1-yl)-(3,5-dibromo-4-hydroxy-phenyl)-methanone] |
| 0.0044 µM | – | – | 1260 nM | O=C(c1cc(Br)c(O)c(Br)c1)N1CCOc2ncc(-c3cccc([N+](=O)[O-])c3)cc21 [Compound 50, (3,5-dibromo-4-hydroxy-phenyl)-[7-(3-nitro-phenyl)-2,3-dihydro-pyrido[2,3-b][1,4]oxazin-1-yl]-methanone] |
| 0.002 µM | – | – | 1230 nM | O=C(c1cc(Br)c(O)c(Br)c1)N1CCOc2ncc(-c3cncc4ccccc34)cc21 [Compound 61, (3,5-dibromo-4-hydroxy-phenyl)-(7-isoquinolin-4-yl-2,3-dihydro-pyrido[2,3-b][1,4]oxazin-1-yl)-methanone] |
| 0.136 µM | – | – | > 12000 nM | COc1c(Br)cc(C(=O)N2CCOc3ccncc32)cc1Br [Compound 2, (3,5-dibromo-4-methoxy-phenyl)-(2,3-dihydro-pyrido[4,3-b][1,4]oxazin-4-yl)-methanone] |
| 0.311 µM | – | – | > 20000 nM | COc1c(Br)cc(C(=O)N2CCOc3ncc(-c4cccc([N+](=O)[O-])c4)cc32)cc1Br [Compound 49, (3,5-dibromo-4-methoxy-phenyl)-[7-(3-nitro-phenyl)-2,3-dihydro-pyrido[2,3-b][1,4]oxazin-1-yl]-methanone] |
| 0.269 µM | – | – | 6800 nM | O=C(c1ccc(O)c(C(F)(F)F)c1)N1CCOc2cnccc21 [Compound 19, (2,3-dihydro-pyrido[3,4-b][1,4]oxazin-1-yl)-(4-hydroxy-3-trifluoromethyl-phenyl)-methanone] |
| 0.0933 µM | – | – | 1680 nM | COc1c(Br)cc(C(=O)N2CCOc3ncc(-c4cccc(N(C)C)c4)cc32)cc1Br [Compound 48, (3,5-dibromo-4-methoxy-phenyl)-[7-(3-dimethylamino-phenyl)-2,3-dihydro-pyrido[2,3-b][1,4]oxazin-1-yl]-methanone] |
| 0.02 µM | – | – | > 20000 nM | O=C(c1cc(Br)c(O)c(Br)c1)N1CCOc2ncc(C3CC3)cc21 [Compound 9, (3,5-dibromo-4-hydroxy-phenyl)-(7-cyclopropyl-2,3-dihydro-pyrido[2,3-b][1,4]oxazin-1-yl)-methanone] |
| 0.0488 µM | – | – | 8870 nM | O=C(c1cc(Br)c(O)c(Br)c1)N1CCOc2c1cnc1ccccc21 [Compound 55, (3,5-dibromo-4-hydroxy-phenyl)-(2,3-dihydro-4-oxa-1,9-diaza-phenanthren-1-yl)-methanone] |
| 0.0123 µM | – | – | 1110 nM | O=C(c1cc(Br)c(O)c(Br)c1)N1CCOc2ncc(-c3cccc(C(F)(F)F)c3)cc21 [Compound 63, (3,5-dibromo-4-hydroxy-phenyl)-[7-(3-trifluoromethyl-phenyl)-2,3-dihydro-pyrido[2,3-b][1,4]oxazin-1-yl]-methanone] |
| 0.0197 µM | – | – | 1180 nM | O=C(c1cc(Br)c(O)c(Br)c1)N1CCOc2ncc(-c3ccc(C(F)(F)F)cc3)cc21 [Compound 45, (3,5-dibromo-4-hydroxy-phenyl)-[7-(4-trifluoromethyl-phenyl)-2,3-dihydro-pyrido[2,3-b][1,4]oxazin-1-yl]-methanone] |
| 0.0232 µM | – | – | 1390 nM | COc1cncc(-c2cnc3c(c2)N(C(=O)c2cc(Br)c(O)c(Br)c2)CCO3)c1 [Compound 68, (3,5-dibromo-4-hydroxy-phenyl)-[7-(5-methoxy-pyridin-3-yl)-2,3-dihydro-pyrido[2,3-b][1,4]oxazin-1-yl]-methanone] |
| 0.0888 µM | – | – | 13400 nM | COc1c(Br)cc(C(=O)N2CCOc3ncc(C(F)(F)F)cc32)cc1Br [Compound 22-1, (3,5-dibromo-4-methoxy-phenyl)-(7-trifluoromethyl-2,3-dihydro-pyrido[2,3-b][1,4]oxazin-1-yl)-methanone] |
| 0.003 µM | – | – | 12400 nM | N#Cc1ccc(-c2cnc3c(c2)N(C(=O)c2cc(Br)c(O)c(Br)c2)CCO3)cc1 [Compound 65, 4-[1-(3,5-dibromo-4-hydroxy-benzoyl)-2,3-dihydro-1H-pyrido[2,3-b][1,4]oxazin-7-yl]-benzonitrile] |
| 0.0103 µM | – | – | > 20000 nM | O=C(c1cc(Br)c(O)c(Br)c1)N1CCOc2ncc(-c3cccnc3)cc21 [Compound 52, (3,5-dibromo-4-hydroxy-phenyl)-(7-pyridin-3-yl-2,3-dihydro-pyrido[2,3-b][1,4]oxazin-1-yl]-methanone] |
| 1 µM | 1610 µg/mL | 1890 µg/mL | – | Br.O=C(c1cc(Cl)c(O)c([N+](=O)[O-])c1)N1CCOc2cnccc21 [Compound 17, (3-chloro-4-hydroxy-5-nitro-phenyl)-(2,3-dihydro-pyrido[3,4-b][1,4]oxazin-1-yl)-methanone bromic acid salt] |
| 0.006 µM | – | – | 16700 nM | Oc1c(Br)cc(C(=S)N2CCOc3ccncc32)cc1Br [Compound 74, (3,5-dibromo-4-hydroxy-phenyl)-(2,3-dihydro-pyrido[4,3-b][1,4]oxazin-4-yl)-methanethione trifluoroacetic acid salt] |
| 0.0115 µM | – | – | 8800 nM | Oc1c(Br)cc(C(=S)N2CCOc3ccncc32)cc1Br [Compound 51, (3,5-dibromo-4-hydroxy-phenyl)-(2,3-dihydro-pyrido[4,3-b][1,4]oxazin-4-yl)-methanethione] |
| 0.516 µM | – | – | > 20000 nM | COc1c(Br)cc(C(=O)N2CCOc3ncc(C#N)cc32)cc1Br [Compound 47-1, 1-(3,5-dibromo-4-methoxy-benzoyl)-2,3-dihydro-1H-pyrido[2,3-b][1,4]oxazin-7-carbonitrile] |
| 0.036 µM | – | – | > 20000 nM | COc1c(Br)cc(C(=O)N2CCOc3ncc(C)cc32)cc1Br [Compound 27-1, (3,5-dibromo-4-methoxy-phenyl)-(7-methyl-2,3-dihydro-pyrido[2,3-b][1,4]oxazin-1-yl)-methanone] |
| 0.742 µM | – | – | > 20000 nM | COc1c(Br)cc(C(=O)N2CCOc3nc(C)ccc32)cc1Br [Compound 58, (3,5-dibromo-4-methoxy-phenyl)-(6-methyl-2,3-dihydro-pyrido[2,3-b][1,4]oxazin-1-yl)-methanone] |
| 0.93 µM | – | – | 3500 nM | O=C(c1ccc(O)c(Br)c1)N1CCOc2cnccc21 [Compound 16, (3-bromo-4-hydroxy-phenyl)-(2,3-dihydro-pyrido[3,4-b][1,4]oxazin-1-yl)-methanone bromic acid salt] |
